Patent publication US9956199B2, “Chromane-like cyclic prenylflavonoids for the medical intervention in neurological disorders” (priority 2011, dated 2018)
“Also recorded” adds a separate entry of the source.

Tested on: MEF cells
Assay: neurite length and branching in MEF cultures
Type: cell-based, mouse
Conditions: 10 μM and 100 μM, 7 days
Procedure: Mouse embryonic day 16 forebrain cells were prepared and treated as described in Example 17.
The morphology of MEF cells after a 7 day treatment with retinoic acid/valproic acid or with compound 1a (ENDF1) is illustrated in FIG. 4. Cells were fixed and stained with DCX and Map2ab antibodies as described in Example 18. Three independent experiments were performed and evaluated. Data acquisition was done by using the software Volocity 5.3.1 for measurement and photographical documentation. The following parameters were analyzed: polarity, process, number of branches, number and length of sprouts, neurite-length and growth cone morphology.
For quantitative analysis of neurite length, neurons with long neurites were taken into consideration. […] For quantitative analysis of neurite branching, the branch density (number of branches per 100 μm of neurite length) was counted. For analysis, the DCX staining with DMEM-KO medium was used, since DCX, in contrast to Map2ab, is localized throughout the neurites.

Compound: COc1cc2c(c(O)c1C(=O)/C=C/c1ccc(O)cc1)C=CC(C)(C)O2 [Compound 1a, (E)-1-(5-hydroxy-7-methoxy-2,2-dimethyl-2H-chromen-6-yl)-3-(4-hydroxyphenyl)prop-2-en-1-one]
- neurite branching/sprouting (branches per 100 μm of neurite length) (DMEM-KO, FIG. 4J): high density of branches/sprouts; also recorded: strongly increases neurite length and neurite branching; also recorded: dramatic increase in branching/sprouting
- neurite length (DCX positive neurite profiles) (compared to control and RA+VPA, FIG. 4I): significant increase in neurite length; also recorded: strongly increases neurite length and neurite branching; also recorded: much longer neurites
